{"source": "patent EP0363836A2", "about": "“Use of homopiperazines in the preparation of a medicament for preventing or treating organ rejection reactions” (BEHRINGWERKE Aktiengesellschaft, priority 1988, dated 1990)", "key": {"Fischer-Ratten": {"test_system": "Fischer-Ratten", "assay": "Rat tail skin transplantation, Lewis donor to Fischer recipient: graft survival time", "type": "in vivo", "settings": "d0-9, mean ± s of 5 animals", "excerpt": "(§1) In einem Experimentalansatz wurden Schwanzhautstückchen von Lewis Ratten mit einer Größe von etwa 0.5 x 1.0 cm auf den Schwanz von Fischer Ratten verpflanzt. In einem weiteren Modell wurde die Schwanzhaut von DA Ratten auf Lewis Ratten transplantiert. Die transplantierten Hautstücke werden vom Immunsystem der Empfängertiere als fremd erkannt und abgestoßen. Wie in Tabelle I zu sehen ist, betrug die Transplantüberlebenszeit im Lewis-Fischer-Rattenmodell in den Kontrollgruppen, die nur mit dem Lösungsmittel behandelt wurden zwischen 16 und 18 Tagen. Die Verbindung der Formel I mit R₁ = H wurde in verschiedenen Konzentrationen (1, 5, 10, 20 und 40 mg/kg Körpergewicht pro Injektion) an 10 aufeinanderfolgenden Tagen, beginnend mit dem Tag der Transplantation, entweder oral oder intraperitoneal verabreicht. Hierbei zeigt sich, daß sich durch verschiedene Konzentrationen der Substanz die Überlebenszeiten der Transplantate dosisabhängig von 15.8 ± 2.4 auf 26.8 ± 1.3 bzw. 18.4 ± 1.5 auf 28.4 ± 1.1 erhöhen ließen, wobei 10 mg/kg eine optimal wirksame Dosis zu sein scheinen."}, "Lewis Ratten": {"test_system": "Lewis Ratten", "assay": "Rat tail skin transplantation, DA donor to Lewis recipient: graft survival time", "type": "in vivo", "settings": "d0-9, mean ± s of 5 animals, * p 0.001", "excerpt": "as §1\nAuch im anderen Transplantationsmodell mit DA Ratten (Spender) und Lewis Ratten (Empfänger) kommt es zu einer Verlängerung der Transplantatüberlebenszeiten durch die Gabe von Homopiperazinen. Hier stoßen die nur mit dem Lösungsmittel behandelten Kontrolltiere das Transplantat ca. am Tag 12 ab. Durch die Behandlung (p.o. oder i.p. […]"}}, "data": [{"smiles": "CC(C)(C)c1cc(C(=O)N2CCCNCC2)cc(C(C)(C)C)c1O", "note": "[Verbindung der Formel I mit R¹ = H]", "values": [{"measurement": "Tage bis zur Abstoßung (x ± s)", "setting": "Fischer-Ratten; 1 mg/kg, 10xip", "value": "(22.8 ± 2.2) Tage"}, {"measurement": "Tage bis zur Abstoßung (x ± s)", "setting": "Fischer-Ratten; 1 mg/kg, 10xpo", "value": "(21.6 ± 1.3) Tage"}, {"measurement": "Tage bis zur Abstoßung (x ± s)", "setting": "Fischer-Ratten; 5 mg/kg, 10xip", "value": "(25.0 ± 2.6) Tage"}, {"measurement": "Tage bis zur Abstoßung (x ± s)", "setting": "Fischer-Ratten; 5 mg/kg, 10xpo", "value": "(25.2 ± 0.8) Tage"}, {"measurement": "Tage bis zur Abstoßung (x ± s)", "setting": "Fischer-Ratten; 10 mg/kg, 10xip", "value": "(26.8 ± 1.3) Tage"}, {"measurement": "Tage bis zur Abstoßung (x ± s)", "setting": "Fischer-Ratten; 10 mg/kg, 10xip, listed as Verbindung der Formel I mit R₁ = H", "value": "26.8 ± 1.3", "unit": "Tage"}, {"measurement": "Tage bis zur Abstoßung (x ± s)", "setting": "Fischer-Ratten; 10 mg/kg, 10xpo", "value": "(28.4 ± 1.1) Tage"}, {"measurement": "Tage bis zur Abstoßung (x ± s)", "setting": "Fischer-Ratten; 10 mg/kg, 10xpo, listed as Verbindung der Formel I mit R₁ = H", "value": "28.4 ± 1.1", "unit": "Tage"}, {"measurement": "Tage bis zur Abstoßung (x ± s)", "setting": "Fischer-Ratten; 20 mg/kg, 10xip", "value": "(25.2 ± 1.6) Tage"}, {"measurement": "Tage bis zur Abstoßung (x ± s)", "setting": "Fischer-Ratten; 20 mg/kg, 10xpo", "value": "(26.8 ± 0.8) Tage"}, {"measurement": "Tage bis zur Abstoßung (x ± s)", "setting": "Fischer-Ratten; 40 mg/kg, 10xip", "value": "(22.4 ± 2.4) Tage"}, {"measurement": "Tage bis zur Abstoßung (x ± s)", "setting": "Fischer-Ratten; 40 mg/kg, 10xpo", "value": "(24.6 ± 2.0) Tage"}, {"measurement": "Tage bis zur Abstoßung (x ± s)", "setting": "Lewis Ratten; 5 mg/kg, 5xip", "value": "(16.0 ± 1.2)* Tage"}, {"measurement": "Tage bis zur Abstoßung (x ± s)", "setting": "Lewis Ratten; 10 mg/kg, 5xip", "value": "(16.6 ± 1.8)* Tage"}, {"measurement": "Tage bis zur Abstoßung (x ± s)", "setting": "Lewis Ratten; 10 mg/kg, 10xpo", "value": "(16.6 ± 0.6)* Tage"}, {"measurement": "Tage bis zur Abstoßung (x ± s)", "setting": "Lewis Ratten; 25 mg/kg, 5xip", "value": "(17.8 ± 0.8)* Tage"}, {"measurement": "Tage bis zur Abstoßung (x ± s)", "setting": "Lewis Ratten; 25 mg/kg, 10xpo", "value": "(17.4 ± 0.6)* Tage"}, {"measurement": "Tage bis zur Abstoßung (x ± s)", "setting": "Lewis Ratten; 50 mg/kg, 5xip", "value": "(19.6 ± 1.8)* Tage"}, {"measurement": "Tage bis zur Abstoßung (x ± s)", "setting": "Lewis Ratten; 50 mg/kg, 10xpo", "value": "(18.6 ± 1.1)* Tage"}]}]}
